From US20160158240A1, “Compositions Containing Defined Caffeine and Theobromine Levels with Enhanced Cognitive Properties” (The Hershey Company, priority 2014, published 2016)

Tests used:
[1] = test system: subjects with a caffeine habit; experiment: fMRI connectivity and brain blood flow analysis after test beverage; format: in vivo, human; conditions: subject that routinely ingests caffeine; brain regions consistent with caffeine cravings; FIG. 1 and FIG. 3
Source text: Measurement or detection of changes in the brain can be done using functional MRI (fMRI) and functional brain network analyses as known in the art. The following is an exemplary study using known techniques based upon fMRI scanning of human brains.
These examples represent an intervention study (number of subjects=24) with a randomized controlled, double-blind, placebo-controlled crossover design. The study is designed to ensure completion of all possibilities in the order of delivering the test samples, i.e. each subject is administered each of the possible test beverages in different order. […] For initial baseline testing, subjects undergo 16 hours of caffeine and chocolate withdrawal for a baseline testing and then participate in four separate brain scanning visits over 5-10 weeks. Study participants are ideally healthy adults 18-55 who consume moderate (200-500 mg) amounts of caffeine daily. […] As determined from a medical screening session, any subjects with active neurological dysfunction (such as a major Axis I psychopathology, Alzheimer's disease, Parkinson's disease, prior history of stroke, epilepsy, or serious CNS trauma, ADHD, migraines, hypertension, diabetes, peripheral vascular disease, or taking vasoactive medications, such as antihypertensive medications) are excluded from the study. […]

brain blood flow = conditions: study using 6 participants; cited from earlier work

## Cn1c(=O)c2c(ncn2C)n(C)c1=O [Caffeine, caffeine]
[1]
  change in blood flow/connectivity by fMRI: reduction in blood flow/connectivity
Brain blood flow
  brain blood flow difference between caffeine and theobromine: 5.03 ml/100 gm tissue/min
